The values that follow come from patent US20040086886A1, “Polymorphisms associated with cardiac arrythmia” (priority 2003, published 2004).

The target in one series is I57T-MiRP1/HERG channels (Homo sapiens, UniProt Q12809). Nature of the series: cell-based.
Series [1] has as its target wild type MiRP1/HERG channels (Homo sapiens, UniProt Q12809+Q9Y6J6). Nature of the series: cell-based.
The target of series [2] is wild type MiRP1/HERG channels (Homo sapiens, UniProt Q12809). Description: cell-based. The settings on record: Ki (equilibrium inhibition constant), wild type MiRP1.
The target in another series is Q9E-MiRP1 channels (Homo sapiens, UniProt Q12809+Q9Y6J6, Q9E). The settings on record: Abbott et al. (1999); cited from earlier work.
Q9E-MiRP1 channels, sequence (Q9Y6J6 whole entry Q9E): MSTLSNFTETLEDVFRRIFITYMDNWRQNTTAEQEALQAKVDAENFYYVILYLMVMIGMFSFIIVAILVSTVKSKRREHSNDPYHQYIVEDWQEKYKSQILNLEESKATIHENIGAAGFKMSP
Q9E-MiRP1 channels, sequence (Q12809 whole entry): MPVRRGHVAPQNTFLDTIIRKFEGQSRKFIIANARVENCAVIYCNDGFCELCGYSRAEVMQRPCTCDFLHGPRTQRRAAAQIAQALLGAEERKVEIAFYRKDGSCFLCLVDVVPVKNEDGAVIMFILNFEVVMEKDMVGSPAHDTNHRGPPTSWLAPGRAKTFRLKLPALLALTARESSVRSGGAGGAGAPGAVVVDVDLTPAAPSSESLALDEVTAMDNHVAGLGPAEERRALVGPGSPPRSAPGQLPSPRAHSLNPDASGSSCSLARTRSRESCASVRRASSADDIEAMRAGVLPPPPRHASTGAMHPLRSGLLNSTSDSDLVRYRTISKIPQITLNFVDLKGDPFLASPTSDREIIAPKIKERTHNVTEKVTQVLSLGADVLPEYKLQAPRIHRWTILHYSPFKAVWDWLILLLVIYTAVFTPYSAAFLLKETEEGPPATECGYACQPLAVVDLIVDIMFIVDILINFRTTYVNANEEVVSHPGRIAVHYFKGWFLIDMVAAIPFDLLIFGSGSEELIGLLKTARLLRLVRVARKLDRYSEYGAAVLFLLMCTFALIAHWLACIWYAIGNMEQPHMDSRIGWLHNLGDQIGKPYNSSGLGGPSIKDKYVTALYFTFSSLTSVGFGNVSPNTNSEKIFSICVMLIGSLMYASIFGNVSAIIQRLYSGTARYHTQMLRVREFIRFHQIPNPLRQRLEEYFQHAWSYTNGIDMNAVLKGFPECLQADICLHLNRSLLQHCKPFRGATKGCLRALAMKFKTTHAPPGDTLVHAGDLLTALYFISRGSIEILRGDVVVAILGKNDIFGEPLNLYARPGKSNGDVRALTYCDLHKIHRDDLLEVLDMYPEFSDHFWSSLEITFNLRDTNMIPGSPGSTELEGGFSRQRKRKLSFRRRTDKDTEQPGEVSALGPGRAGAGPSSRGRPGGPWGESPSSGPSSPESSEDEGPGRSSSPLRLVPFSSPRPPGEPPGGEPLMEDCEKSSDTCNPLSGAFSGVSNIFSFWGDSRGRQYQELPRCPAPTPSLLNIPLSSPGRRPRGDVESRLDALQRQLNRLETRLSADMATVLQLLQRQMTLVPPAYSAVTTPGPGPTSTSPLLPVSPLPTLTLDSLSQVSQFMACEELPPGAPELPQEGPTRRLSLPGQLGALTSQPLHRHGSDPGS

wild type MiRP1/HERG channels (Homo sapiens, UniProt Q12809), sequence (Q12809 whole entry): as above
wild type MiRP1/HERG channels (Homo sapiens, UniProt Q12809), sequence (Q9Y6J6 whole entry, further chain): as the sequence (Q9Y6J6 whole entry Q9E) above, with E9Q counted along it
wild type MiRP1/HERG channels (Homo sapiens, UniProt Q12809+Q9Y6J6), sequence (Q12809 whole entry): as the sequence (Q12809 whole entry) above
wild type MiRP1/HERG channels (Homo sapiens, UniProt Q12809+Q9Y6J6), sequence (Q9Y6J6 whole entry): as the sequence (Q9Y6J6 whole entry Q9E) above, with E9Q counted along it
I57T-MiRP1/HERG channels, sequence (Q12809 whole entry): as the sequence (Q12809 whole entry) above
I57T-MiRP1/HERG channels, sequence (Q9Y6J6 whole entry I57T, further chain): as the sequence (Q9Y6J6 whole entry Q9E) above, with E9Q, I57T counted along it

As a reminder, the Ki is a measure of affinity in units of concentration, obtained from inhibition or displacement. Read a low Ki as higher affinity. With `O=c1[nH]c2ccccc2n1CCCN1CCN(C(c2ccccc2)c2ccccc2)CC1` [oxatomide], the Ki was 1.88 µM at I57T-MiRP1/HERG channels and 0.422 µM in series [2]. Also, in series [1], the “Level for half-maximal inhibition relative to plasma (therapeutic) levels in patients” value was “close to their therapeutic concentrations”.

Regarding `CC[C@H]1OC(=O)[C@H](C)[C@@H](O[C@H]2C[C@@](C)(OC)[C@@H](O)[C@H](C)O2)[C@H](C)[C@@H](O[C@@H]2O[C@H](C)C[C@H](N(C)C)[C@H]2O)[C@](C)(OC)C[C@@H](C)C(=O)[C@H](C)[C@@H](O)[C@]1(C)O` [clarithromycin], the “Sensitivity of Q9E-MiRP1 channels to drug inhibition relative to wild type” value at Q9E-MiRP1 channels is given as “three-fold more sensitive”.
